# Experiments:
# P388 [1] = assay: Inhibition ratio against P-388 cancer cell growth at a concentration of 10e-5 mol/L; assay type: functional, Mus musculus
# A549 [2] = assay: Inhibition ratio against A-549 cancer cell growth at a concentration of 10e-5 mol/L; assay type: functional, Homo sapiens
# A549 [3] = assay: Inhibition ratio against A-549 cancer cell growth at a concentration of 10e-8 mol/L; assay type: functional, Homo sapiens
# P388 [4] = assay: Inhibition ratio against P-388 cancer cell growth at a concentration of 10e-7 mol/L; assay type: functional, Mus musculus
# A549 [5] = assay: Inhibition ratio against A-549 cancer cell growth at a concentration of 10e-6 mol/L; assay type: functional, Homo sapiens
# A549 [6] = assay: Inhibition ratio against A-549 cancer cell growth at a concentration of 10e-7 mol/L; assay type: functional, Homo sapiens
# P388 [7] = assay: Inhibition ratio against P-388 cancer cell growth at a concentration of 10e-8 mol/L; assay type: functional, Mus musculus
# P388 [8] = assay: Inhibition ratio against P-388 cancer cell growth at a concentration of 10e-6 mol/L; assay type: functional, Mus musculus
# P388 [9] = assay: Inhibition ratio against P-388 cancer cell growth at a concentration of 10e-4 mol/L; assay type: functional, Mus musculus
# A549 [10] = assay: Inhibition ratio against A-549 cancer cell growth at a concentration of 10e-4 mol/L; assay type: functional, Homo sapiens
SMILES,Ratio (P388 [1]),Ratio (A549 [2]),Ratio (A549 [3]),Ratio (P388 [4]),Ratio (A549 [5]),Ratio (A549 [6]),Ratio (P388 [7]),Ratio (P388 [8]),Ratio (P388 [9]),Ratio (A549 [10])
O=C1c2ccccc2C(=Cc2cccc([N+](=O)[O-])c2)c2ccccc21,55.8,91.8,13.2,22.1,12.4,7.7,30.7,23.9,89.8,96
Cc1cccc(C=C2c3ccccc3C(=O)c3ccccc32)c1,7.2,18.2,0,0,0,0,0,0,53.3,93
O=C1c2ccccc2C(=Cc2ccc(O)cc2)c2ccccc21,72,87,60,27.1,87.2,88.7,42.8,41.6,100,92.9
O=C1c2ccccc2C(=Cc2cccc(Cl)c2)c2ccccc21,39.4,92,12.5,19.3,62.9,5.7,10.9,11.9,89.2,97.1
COc1ccccc1C=C1c2ccccc2C(=O)c2ccccc21,76.1,81.7,66.3,47,85.7,86.8,32.7,55.4,82.2,89.3
O=C1c2ccccc2C(=Cc2ccccc2Cl)c2ccccc21,23.7,53,5.9,0,0.3,6,0,0,58.4,89.9
O=C1c2ccccc2C(=Cc2ccc(F)cc2)c2ccccc21,31.4,88.2,49.2,10.3,56.5,18.5,5.2,18.4,83.3,96.8
Cc1ccc(C=C2c3ccccc3C(=O)c3ccccc32)cc1,42.4,91.8,84.7,49.3,90,92.7,56.5,48.6,69,95.2
COc1ccc(C=C2c3ccccc3C(=O)c3ccccc32)cc1OC,80.2,92.8,81.7,53.6,87,90.6,50.9,56,95.7,95.7
O=C1c2ccccc2C(=Cc2ccc(Cl)cc2)c2ccccc21,36,87.3,41.7,2.8,41.9,33.6,4.4,3.9,70,96
Cc1ccccc1C=C1c2ccccc2C(=O)c2ccccc21,42.4,84.8,5.7,8,18.5,0,13.1,24.9,84.1,90.9
COc1ccc(C=C2c3ccccc3C(=O)c3ccccc32)cc1,72.5,84.7,84.8,64.3,87,85.4,75.5,76.5,76.7,90
O=C1c2ccccc2C(=Cc2ccccc2)c2ccccc21,56.2,79.9,4.4,0,9.8,1,2.7,17.8,97.8,95.4
COc1cccc(C=C2c3ccccc3C(=O)c3ccccc32)c1,48.2,92.5,6.2,7.1,25.1,38.1,1,27.2,96,95.8
O=C1c2ccccc2C(=Cc2ccccc2O)c2ccccc21,88.2,94.8,85.2,44.9,89.3,83,38.5,65.8,95.6,96.3
